Measurements from patent publication US11779597B2, “Method of treating Parkinson's and other neurodegenerative diseases” (Vector Vitale IP LLC, priority 2019, dated 2023).

What was measured:
Water content of feces = format: in vivo; settings: LPS rat models; administration during 10 days
Procedure: Feces were collected on the 8th, 21st and 28th days of the experiment. They were weighed (wet weight mww) and dried in a thermostat at t=60° C. for 24 hours and then weighed again (dry weight mdw). The water content of feces (M) was calculated as the percentage difference between wet and dry weight of feces according to the following formula: M=100−(mdw×100%/mww).
On the 1st day of the experiment, rats were either operated to model hemi-parkinsonism or sham operated. From the 9th to the 18th day of the experiment, the animals were injected either deuterium-depleted water or the test substance, according to their allocation into groups, for 10 days. On the 8th day of the experiment (before initiation of treatment—apomorphine test I) and on the 21st day of the experiment (after the end of administering the test substance —apomorphine test II) the animals underwent an apomorphine test to analyze the development of hemi-parkinsonism which correlates with the number of destroyed dopaminergic neurons. In addition, a follow-up analysis of fecal water content was carried out, i.e., before the start of treatment on the 8th day after the operation, as well as on the 21st (after the end of treatment) and the 28th day (before autopsy). On the 24th day of the experiment, behavioral tests were carried out in all groups. All animals were weighed before autopsy. […]

microglia = experiment: Functional and phenotypic properties of microglia in LPS rat models; format: in vivo; settings: LPS animal models of PD
Procedure: On the 1st day of the experiment, rats were either operated to model hemi-parkinsonism or sham operated. From the 9th to the 18th day of the experiment, the animals were injected either deuterium-depleted water or the test substance, according to their allocation into groups, for 10 days. On the 8th day of the experiment (before initiation of treatment—apomorphine test I) and on the 21st day of the experiment (after the end of administering the test substance —apomorphine test II) the animals underwent an apomorphine test to analyze the development of hemi-parkinsonism which correlates with the number of destroyed dopaminergic neurons. In addition, a follow-up analysis of fecal water content was carried out, i.e., before the start of treatment on the 8th day after the operation, as well as on the 21st (after the end of treatment) and the 28th day (before autopsy). On the 24th day of the experiment, behavioral tests were carried out in all groups. All animals were weighed before autopsy. During autopsy, ⅔ of animals from each group were sacrificed by cervical dislocation and brain and blood samples were collected for further biochemical and immunological tests. ⅓ of the animals were used for further immunohistochemical studies of the brain; for this purpose, under anesthesia, a procedure of fast, controlled and uniform fixation of the whole body of the animal was performed using 4% paraformaldehyde perfused through the heart of the rat to obtain the best preservation of the brain architecture for immunohistochemistry. Gage G J, et al., J Vis Exp. 2012 Jul. 30; (65).
To assess the anti-inflammatory and immunomodulating effects of the test substance, microglia and peritoneal macrophages were isolated. Phenotypic and functional features of peripheral blood phagocytes were evaluated without their fractioning (using whole blood). […]
Phagocytic activity of microglia, peritoneal macrophages and peripheral blood phagocytes was analyzed on a flow cytometer using FITC-labeled S. aureus Wood 46 cells as an object of phagocytosis. […]
Oxidative metabolism of phagocytes of various localization was analyzed by flow cytometry using the cell-permeant 2′7′-dichlorodihydrofluorescein-diacetate (DHP) (carboxy-H2DCFDA, Invitrogen, USA) which is converted by intracellular esterases to the nonfluorescent membrane-impermeable carboxy-H2DCF form.
The phenotypic profile of phagocytes of various localization was characterized by the expression of markers of functional maturity and metabolic polarization (CD206, CD80 and CD86), which was determined by flow cytometry and the use of monoclonal antibodies of appropriate specificity marked with fluorescent dyes (Abcam, Becton Dickinson).

Substance: ^64Zn-enriched zinc aspartate [^64Zne-asp]
- water content of feces (Water content of feces): did not cause any significant changes
- expression of CD86 by microglia (microglia): significant increase
- expression of CD206 by microglia (microglia): increased expression
- oxidative metabolism of microglia (microglia): slightly but statistically significantly increased
- phagocytic activity of microglia (microglia): sharp increase
